Tests used:
PKA = PKA (Homo sapiens (Human), UniProt P17612); experiment: Kinase selectivity profiling; format: biochemical
Procedure: (§1) Kinase assays were performed in 96-well FlashPlates™ from Perkin Elmer in a […]. […] The reaction cocktail contained 70 mM HEPES-NaOH, pH 7.5, 3 mM MnCl2, 3 μM Na3VO4, 1.2 mM DTT, 1 μM [γ-^33P]-ATP (approximately 6×10^5 cpm per well), protein kinase (variable amounts), and substrate (variable amounts). The reaction cocktails were incubated at 30° C. for 60 min. The reaction was stopped with 50 μL of 2% (v/v) H3PO4, and plates were aspirated and washed two times with 200 μL 0.9% (w/v) NaCl. ALL assays were performed with a BeckmanCoulter Biomek 2000/SL robotic system. Incorporation of ^33Pi (counting of “cpm”) was determined with a microplate scintillation counter.

ALK3 = ALK3 (Homo sapiens (Human), UniProt P36894); experiment: Kinase selectivity profiling; format: biochemical
Procedure: as §1

MET wt = MET wt (Homo sapiens (Human), UniProt P08581); experiment: Kinase selectivity profiling; format: biochemical
Procedure: as §1

PAK1 = PAK1 (Homo sapiens (Human), UniProt Q13153); experiment: Kinase selectivity profiling; format: biochemical
Procedure: as §1

MST1 = MST1 (Homo sapiens (Human), UniProt Q13043); experiment: Kinase selectivity profiling; format: biochemical
Procedure: as §1

EGF-R wt = EGF-R wt (Homo sapiens (Human), UniProt P00533); experiment: Kinase selectivity profiling; format: biochemical
Procedure: as §1

VEGF-R1 = VEGF-R1 (Homo sapiens (Human), UniProt P17948); experiment: Kinase selectivity profiling; format: biochemical
Procedure: as §1

CHK1 = CHK1 (Homo sapiens (Human), UniProt O14757); experiment: Kinase selectivity profiling; format: biochemical
Procedure: as §1

RPS6KA1 = RPS6KA1 (Homo sapiens (Human), UniProt Q15418); experiment: Kinase selectivity profiling; format: biochemical
Procedure: as §1

ROCK1 = ROCK1 (Homo sapiens (Human), UniProt Q13464); experiment: Kinase selectivity profiling; format: biochemical
Procedure: as §1

GSK3α = GSK3α (Homo sapiens (Human), UniProt P49840); experiment: Kinase selectivity profiling; format: biochemical
Procedure: as §1

STK23 = STK23 (Homo sapiens (Human), UniProt Q9UPE1); experiment: Kinase selectivity profiling; format: biochemical
Procedure: as §1

DAPK1 = DAPK1 (Homo sapiens (Human), UniProt P53355); experiment: Kinase selectivity profiling; format: biochemical
Procedure: as §1

4T1 cells = experiment: Matrigel invasion assay; format: cell-based; settings: TGF-β1 2 ng/mL, 20 h
Procedure: The upper surface of Transwells (6.5 mm diameter, 8 μm pore size; […] After incubation for 20 h at 37° C. in 5% CO2, the cells remaining on the upper surface of the membrane were removed with a cotton swab, and DAPI-stained cells remaining on the bottom surface were observed using fluorescence microscopy. Average cell number per view field was obtained from 5 random fields.

[1] = tested on: BALB/c 4T1 xenografted mice; experiment: Anti-metastatic effect on BALB/c 4T1 xenografted mice model; format: in vivo
Procedure: Female BALB/c mice were purchased from Orient Bio Inc. (Seoul, Korea). Animals were maintained in a temperature-controlled room (22° C.) and supplied with food and water ad libitum. 4T1 cells (1.2×10^4 cells) were suspended in PBS and implanted into the left #4 mammary fat pad of five to six-week-old female BALB/c mice (day 0). In Experiment 1, treatment was started after tumor implantation (day 0). […] In Experiment 2, treatment was started on day 4. […] In Experiment 3, treatment was started on day 4. […] In Experiment 4, 4T1 cells (1×10^4 cells) were suspended in PBS and implanted into the left #4 mammary fat pad of ten-week-old female BALB/c mice (day 0). Treatment was started on day 10. Example 61 (43.6 mg/kg) dissolved in saline was given to mice intraperitoneally every other day for 2.5 weeks. In all Experiments, mice were sacrificed at 24 to 72 h after the last dosing, and 15% India ink solution (Hardy Diagnostics) in PBS was immediately injected into the trachea. […] Number of metastatic nodule was counted on the surface of left lobe of lung, and picture of lung was taken with digital camera. The tumor size was measured using calipers, and the tumor volume was calculated by using the following equation: Tumor volume=(0.5236)×(width)^2×(length)
Either vehicle buffer (4 mM HCl, 1 mg/mL BSA) or TGF-β1 (50 ng/mouse) in vehicle buffer was given to mice intravenously at 2 h before mice were sacrificed. Tumor tissues from mice were lysed in RIPA buffer [50 mM Tris, pH 7.5, 150 mM NaCl, 0.1% sodium dodecyl sulfate, 0.5% sodium deoxycholate, 1% NP-40, 1 mM NaF, 1 mM Na3VO4, 1 mM PMSF, a protease inhibitor cocktail (1 tablet of Roche Diagnostics GmbH protease inhibitor cocktail/10 mL) (Roche)] for 20 min on ice. Lysates were cleared by centrifugation at 13000 rpm at 4° C. for 20 min. Protein content of supernatants was determined using Micro-BCA (bicinchoninic acid) protein assay kit (Thermo Scientific). Lysates containing 20-50 μg total protein were separated by electrophoresis on polyacrylamide gel and then electrophoretically transferred to polyvinylidene difluoride transfer membranes (Millipore, Billerica, Mass., USA). Membranes were blocked with 5% BSA (Sigma-Aldrich) in PBS containing 0.5% Tween-20 (PBST) for 1 h and incubated overnight at 4° C. with one of following antibodies: anti-phospho-Smad2 (Millipore), anti-Smad2/3 (BD Transduction Laboratories, NJ, USA), or anti-β-actin (Sigma-Aldrich) in PBST containing 1% BSA. […] Bound antibodies were detected using Western Blotting Luminol Reagent (SantaCruz Biotechnology). Band intensities were analyzed using a densitometer LAS-3000 imager (FUJIFILM, Tokyo, Japan).

[2] = read-out: % inhibition at 1 μM, 1 μM
[3] = read-out: % inhibition at 10 μM, 10 μM

Chain of RPS6KA1 (Q15418 whole entry, species assumed): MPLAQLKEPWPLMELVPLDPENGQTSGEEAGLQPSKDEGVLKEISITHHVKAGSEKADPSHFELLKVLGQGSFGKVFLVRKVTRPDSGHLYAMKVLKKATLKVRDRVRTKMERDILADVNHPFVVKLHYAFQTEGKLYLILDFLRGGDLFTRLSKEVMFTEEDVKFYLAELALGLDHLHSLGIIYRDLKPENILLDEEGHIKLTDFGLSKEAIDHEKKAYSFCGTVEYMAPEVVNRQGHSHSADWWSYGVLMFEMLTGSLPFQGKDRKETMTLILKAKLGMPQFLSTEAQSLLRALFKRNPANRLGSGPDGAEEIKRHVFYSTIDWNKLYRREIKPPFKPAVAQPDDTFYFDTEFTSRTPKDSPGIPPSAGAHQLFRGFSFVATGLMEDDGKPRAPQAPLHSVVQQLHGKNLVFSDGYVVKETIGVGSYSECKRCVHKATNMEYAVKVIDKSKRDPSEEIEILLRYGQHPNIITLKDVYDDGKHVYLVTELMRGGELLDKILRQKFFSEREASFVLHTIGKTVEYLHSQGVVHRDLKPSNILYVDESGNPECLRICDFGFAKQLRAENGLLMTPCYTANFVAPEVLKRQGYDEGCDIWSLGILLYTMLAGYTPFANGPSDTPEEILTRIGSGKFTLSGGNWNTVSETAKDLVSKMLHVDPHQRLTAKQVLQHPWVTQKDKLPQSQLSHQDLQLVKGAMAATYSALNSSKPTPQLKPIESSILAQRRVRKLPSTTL
Chain of ROCK1 (Q13464 whole entry, species assumed): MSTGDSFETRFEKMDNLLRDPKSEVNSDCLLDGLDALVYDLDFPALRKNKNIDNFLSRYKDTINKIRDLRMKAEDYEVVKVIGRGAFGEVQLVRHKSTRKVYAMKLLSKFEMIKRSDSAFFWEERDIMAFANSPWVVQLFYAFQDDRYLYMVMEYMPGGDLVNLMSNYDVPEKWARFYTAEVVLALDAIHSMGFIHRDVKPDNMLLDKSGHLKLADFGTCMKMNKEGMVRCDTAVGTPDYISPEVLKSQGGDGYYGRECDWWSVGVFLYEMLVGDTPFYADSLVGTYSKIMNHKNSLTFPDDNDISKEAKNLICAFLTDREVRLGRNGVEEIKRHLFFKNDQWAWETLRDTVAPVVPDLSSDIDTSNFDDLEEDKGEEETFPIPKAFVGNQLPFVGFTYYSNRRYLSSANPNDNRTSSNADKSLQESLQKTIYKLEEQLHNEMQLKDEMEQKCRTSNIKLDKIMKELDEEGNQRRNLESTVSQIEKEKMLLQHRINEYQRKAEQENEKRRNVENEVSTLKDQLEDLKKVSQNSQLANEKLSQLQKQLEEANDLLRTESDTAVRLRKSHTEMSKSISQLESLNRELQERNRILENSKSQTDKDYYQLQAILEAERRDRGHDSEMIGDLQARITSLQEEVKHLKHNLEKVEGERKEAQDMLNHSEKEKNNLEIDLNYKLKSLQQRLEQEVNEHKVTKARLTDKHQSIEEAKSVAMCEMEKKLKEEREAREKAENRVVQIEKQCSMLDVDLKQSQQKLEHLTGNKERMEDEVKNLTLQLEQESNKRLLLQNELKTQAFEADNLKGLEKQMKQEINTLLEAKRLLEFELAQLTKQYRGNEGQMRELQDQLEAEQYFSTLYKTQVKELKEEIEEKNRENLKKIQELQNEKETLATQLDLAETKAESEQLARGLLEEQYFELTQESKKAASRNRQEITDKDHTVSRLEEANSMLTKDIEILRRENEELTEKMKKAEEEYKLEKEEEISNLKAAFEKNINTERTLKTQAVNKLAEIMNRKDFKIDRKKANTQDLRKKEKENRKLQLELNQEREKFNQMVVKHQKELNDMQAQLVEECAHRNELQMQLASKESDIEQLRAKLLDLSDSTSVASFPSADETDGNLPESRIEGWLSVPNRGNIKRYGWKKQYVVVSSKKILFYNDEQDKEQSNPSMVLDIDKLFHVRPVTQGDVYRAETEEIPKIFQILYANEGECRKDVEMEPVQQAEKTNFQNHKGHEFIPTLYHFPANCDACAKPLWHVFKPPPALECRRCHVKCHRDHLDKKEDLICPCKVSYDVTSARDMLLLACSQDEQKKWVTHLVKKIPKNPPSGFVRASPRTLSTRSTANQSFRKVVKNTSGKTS
Chain of STK23 (Q9UPE1 whole entry, species assumed): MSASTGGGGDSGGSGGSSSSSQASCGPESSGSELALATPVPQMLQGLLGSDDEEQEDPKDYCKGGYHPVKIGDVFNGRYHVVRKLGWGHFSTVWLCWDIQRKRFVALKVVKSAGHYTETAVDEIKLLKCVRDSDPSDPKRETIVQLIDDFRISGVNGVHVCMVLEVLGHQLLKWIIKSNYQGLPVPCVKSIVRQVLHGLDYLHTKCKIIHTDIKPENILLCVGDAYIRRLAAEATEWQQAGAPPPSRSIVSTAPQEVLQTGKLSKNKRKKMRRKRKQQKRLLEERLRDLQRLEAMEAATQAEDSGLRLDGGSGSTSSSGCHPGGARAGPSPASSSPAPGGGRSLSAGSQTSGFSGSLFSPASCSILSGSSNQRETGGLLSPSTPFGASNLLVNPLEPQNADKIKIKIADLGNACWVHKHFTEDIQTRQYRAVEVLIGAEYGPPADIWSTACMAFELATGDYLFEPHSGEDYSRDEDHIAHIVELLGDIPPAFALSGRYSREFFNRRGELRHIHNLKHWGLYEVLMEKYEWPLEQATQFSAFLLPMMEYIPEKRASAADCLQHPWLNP
Chain of PAK1 (Q13153 whole entry): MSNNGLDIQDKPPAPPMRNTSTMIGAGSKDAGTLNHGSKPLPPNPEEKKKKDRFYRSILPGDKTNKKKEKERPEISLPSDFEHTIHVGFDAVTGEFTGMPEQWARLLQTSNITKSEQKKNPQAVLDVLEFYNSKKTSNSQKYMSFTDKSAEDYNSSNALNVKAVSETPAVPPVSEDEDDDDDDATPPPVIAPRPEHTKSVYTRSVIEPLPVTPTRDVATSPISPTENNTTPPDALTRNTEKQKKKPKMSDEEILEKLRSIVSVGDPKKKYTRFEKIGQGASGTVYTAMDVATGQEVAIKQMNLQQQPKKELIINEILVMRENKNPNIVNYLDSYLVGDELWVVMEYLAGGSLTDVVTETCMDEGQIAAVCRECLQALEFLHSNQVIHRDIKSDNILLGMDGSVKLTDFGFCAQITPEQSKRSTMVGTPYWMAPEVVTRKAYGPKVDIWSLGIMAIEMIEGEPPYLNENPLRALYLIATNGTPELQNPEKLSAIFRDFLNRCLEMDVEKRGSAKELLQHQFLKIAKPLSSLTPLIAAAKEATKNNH
Chain of DAPK1 (P53355 whole entry, species assumed): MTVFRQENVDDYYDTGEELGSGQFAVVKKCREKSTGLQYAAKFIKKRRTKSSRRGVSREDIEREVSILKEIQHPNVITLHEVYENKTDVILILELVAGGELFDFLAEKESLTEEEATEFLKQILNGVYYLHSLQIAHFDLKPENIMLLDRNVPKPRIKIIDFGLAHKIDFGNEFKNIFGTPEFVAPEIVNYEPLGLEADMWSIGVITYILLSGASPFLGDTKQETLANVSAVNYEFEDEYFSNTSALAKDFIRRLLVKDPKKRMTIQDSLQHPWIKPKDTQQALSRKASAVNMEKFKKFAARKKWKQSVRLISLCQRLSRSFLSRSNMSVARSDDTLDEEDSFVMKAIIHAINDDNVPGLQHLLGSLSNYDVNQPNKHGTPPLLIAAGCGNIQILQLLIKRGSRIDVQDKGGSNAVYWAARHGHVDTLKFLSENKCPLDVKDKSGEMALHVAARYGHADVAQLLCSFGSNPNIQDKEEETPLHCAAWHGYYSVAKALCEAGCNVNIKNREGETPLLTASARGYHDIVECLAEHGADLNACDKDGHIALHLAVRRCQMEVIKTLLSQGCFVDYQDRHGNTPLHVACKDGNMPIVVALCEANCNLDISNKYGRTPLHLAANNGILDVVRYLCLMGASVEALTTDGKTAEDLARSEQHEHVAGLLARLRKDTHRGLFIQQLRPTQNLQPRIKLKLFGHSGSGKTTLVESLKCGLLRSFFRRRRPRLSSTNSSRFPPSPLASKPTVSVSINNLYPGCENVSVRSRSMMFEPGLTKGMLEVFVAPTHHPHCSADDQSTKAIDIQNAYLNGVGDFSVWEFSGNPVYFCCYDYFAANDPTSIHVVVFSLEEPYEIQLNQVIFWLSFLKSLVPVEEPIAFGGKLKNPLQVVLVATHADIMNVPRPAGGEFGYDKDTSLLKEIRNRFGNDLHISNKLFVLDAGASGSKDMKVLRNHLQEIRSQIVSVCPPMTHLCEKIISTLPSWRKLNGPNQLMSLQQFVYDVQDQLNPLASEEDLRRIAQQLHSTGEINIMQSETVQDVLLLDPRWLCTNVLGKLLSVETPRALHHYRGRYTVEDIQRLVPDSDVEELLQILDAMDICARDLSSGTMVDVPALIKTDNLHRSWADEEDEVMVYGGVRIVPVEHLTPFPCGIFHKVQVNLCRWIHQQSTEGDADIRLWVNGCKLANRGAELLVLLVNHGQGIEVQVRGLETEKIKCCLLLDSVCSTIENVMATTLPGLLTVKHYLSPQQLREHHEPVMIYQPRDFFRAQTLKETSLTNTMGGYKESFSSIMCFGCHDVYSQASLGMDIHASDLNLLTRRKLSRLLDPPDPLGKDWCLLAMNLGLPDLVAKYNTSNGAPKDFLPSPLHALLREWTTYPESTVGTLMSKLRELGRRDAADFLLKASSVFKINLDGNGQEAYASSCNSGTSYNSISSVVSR

For Cc1cccc(-c2[nH]c(CNc3ccccc3F)nc2-c2ccc3ncnn3c2)n1 [Example 2, N-((4-([1,2,4]triazolo[1,5-a]pyridin-6-yl)-5-(6-methylpyridin-2-yl)-1H-imidazol-2-yl)methyl)-2-fluoroaniline], the inhibition at 1 µM (PKA; [2]) was -7%, the inhibition at 10 µM (PKA; [3]) was 18% and the inhibition at 1 µM (ALK3; [2]) was -6%. It also gave an inhibition at 10 µM (ALK3; [3]) of 27%, an inhibition at 1 µM (MET wt; [2]) of -5% and an inhibition at 10 µM (MET wt; [3]) of 12%. The inhibition at 1 µM (PAK1; [2]) was -7%, the inhibition at 10 µM (PAK1; [3]) was -3% and the inhibition at 1 µM (MST1; [2]) was -7%. For the same compound, the inhibition at 10 µM (MST1; [3]) was 3%, the inhibition at 1 µM (EGF-R wt; [2]) was -8% and the inhibition at 10 µM (EGF-R wt; [3]) was 43%. The IC50 (VEGF-R1) was 0.391 µM, the inhibition at 1 µM (CHK1; [2]) was -2% and the inhibition at 10 µM (CHK1; [3]) was 5%. The inhibition at 1 µM (RPS6KA1; [2]) was 6%, the inhibition at 10 µM (RPS6KA1; [3]) was 14% and the inhibition at 1 µM (ROCK1; [2]) was 3%. The inhibition at 10 µM (ROCK1; [3]) was 9%, the inhibition at 1 µM (GSK3α; [2]) was 10% and the inhibition at 10 µM (GSK3α; [3]) was 15%. For the same compound, the inhibition at 1 µM (STK23; [2]) was -4%, the inhibition at 10 µM (STK23; [3]) was -1% and the inhibition at 1 µM (DAPK1; [2]) was 5%. The inhibition at 10 µM (DAPK1; [3]) was 11%, the TGF-β1-induced cell invasion (4T1 cells) was “suppressed” and the “number of metastastic nodules on the lung” value ([1]; Example 3 13.6 or 27.3 mg/kg orally BID, four weeks, Example 2 5, 10, 20, or 40 mg/kg orally, Example 61 43.6 mg/kg intraperitoneally every other day, 2.5 weeks) was “significantly reduced”. The “TGF-β1-induced Smad2 phosphorylation in tumor tissues” value ([1]; Experiment 3, 5, 10, 20, or 40 mg/kg orally every other day for 24 days, Western blot) was “suppressed”.
